The values that follow come from US20190201489A1, “COMPOSITIONS AND METHODS FOR PREVENTING BONE LOSS AND/OR STIMULATING BONE HEALING” (NORTHEAST OHIO MEDICAL UNIVERSITY, priority 2016, published 2019).

Test [1] deals with IL-6 mRNA. Put plainly: IL-6 mRNA expression in chondrocytes by TaqMan assay. It is filed as cell-based. Conditions: human chondrocytes stimulated with IL-1β, n=4. Here is the method:
(§1) Chondrocytes were derived by enzymatic digestion of human cartilage obtained from OA patients (n=14) undergoing knee joint replacement. Chondrocytes were stimulated with IL-1β (5 ng/ml) or treated with Actinomycin D (5 μg/ml) or NFκB inhibitor SC514 (75 μM) or JNK inhibitor (25 μM). Total RNA from grounded cartilage and from chondrocytes was purified using Qiagen RNeasy kit (Qiagen). Reverse transcription was performed using the Quantitect Reverse Transcription kit and the ZCCHC6 or IL-6 mRNA was quantified using TaqMan assays. SiRNA-mediated depletion of ZCCHC6 in human chondrocytes was used to study the effect on inflammatory cytokine expression using a cytokine array (Ray Biotech). Protein expression of IL-6 was studied using Western immunoblotting and quantified by ELISA in culture supernatants. Results were derived using Sigma Plot 12.3 package and p<0.05 was considered significant.
A general note: Real-time PCR tracks product formation cycle by cycle.

The test system of test [2] is ZCCHC6. In words: ZCCHC6 expression in IL-1β-stimulated chondrocytes. It is filed as cell-based. Conditions: human chondrocytes stimulated with IL-1β, n=4. As to the method:
as §1

With Interleukin-1β [IL-1β], the “increase in mRNA of IL-6” value in test [1] is given as 4956 fold. Also, the “increase in expression of ZCCHC6” value in test [2] is listed as 11.3 fold.
